# Laboratory results reported in PubChem BioAssay (NCI).
#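 Assay format: 96-well plates, 48-hour exposure. GI50 = concentration required for 50% inhibition of growth. The concentration for full growth arrest is given as TGI.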
# Key:
# Assay in all cases: NCI-60 cell line screen, 48 h
# U251 CNS = system: U251 CNS
# HCT-15 colon = system: HCT-15 colon
# OVCAR-8 ovarian = system: OVCAR-8 ovarian
# SF-539 CNS = system: SF-539 CNS
# NCI/ADR-RES ovarian = system: NCI/ADR-RES ovarian
# NCI-H522 lung = system: NCI-H522 lung
# NCI-H460 lung = system: NCI-H460 lung
# SK-OV-3 ovarian = system: SK-OV-3 ovarian
# SF-295 CNS = system: SF-295 CNS
# IGROV1 ovarian = system: IGROV1 ovarian
# K-562 leukemia = system: K-562 leukemia
# SNB-19 CNS = system: SNB-19 CNS
# SN12C renal = system: SN12C renal
# UACC-62 melanoma = system: UACC-62 melanoma
# KM12 colon = system: KM12 colon
# SW-620 colon = system: SW-620 colon
# OVCAR-5 ovarian = system: OVCAR-5 ovarian
# BT-549 breast = system: BT-549 breast
# SF-268 CNS = system: SF-268 CNS
# HL-60(TB) leukemia = system: HL-60(TB) leukemia
# SK-MEL-2 melanoma = system: SK-MEL-2 melanoma
# DU-145 prostate = system: DU-145 prostate
# COLO 205 colon = system: COLO 205 colon
# UACC-257 melanoma = system: UACC-257 melanoma
# HOP-92 NSCLC = system: HOP-92 NSCLC
# PC-3 prostate = system: PC-3 prostate
# SK-MEL-5 melanoma = system: SK-MEL-5 melanoma
# HCC-2998 colon = system: HCC-2998 colon
# TK-10 renal = system: TK-10 renal
# SK-MEL-28 melanoma = system: SK-MEL-28 melanoma
# NCI-H226 lung = system: NCI-H226 lung
# OVCAR-3 ovarian = system: OVCAR-3 ovarian
# MDA-MB-231 breast = system: MDA-MB-231 breast
# 786-0 renal = system: 786-0 renal
# HT29 colon = system: HT29 colon
# NCI-H23 lung = system: NCI-H23 lung
# CAKI-1 renal = system: CAKI-1 renal
# RPMI-8226 leukemia = system: RPMI-8226 leukemia
# RXF 393 renal = system: RXF 393 renal
# CCRF-CEM leukemia = system: CCRF-CEM leukemia
# MCF7 breast = system: MCF7 breast
# A549 NSCLC = system: A549 NSCLC
# UO-31 renal = system: UO-31 renal
# HCT-116 colon = system: HCT-116 colon
# SR leukemia = system: SR leukemia
# SNB-75 CNS = system: SNB-75 CNS
# OVCAR-4 ovarian = system: OVCAR-4 ovarian
# MDA-MB-435 = system: MDA-MB-435
# A498 renal = system: A498 renal
# T-47D breast = system: T-47D breast
# ACHN renal = system: ACHN renal
# MALME-3M melanoma = system: MALME-3M melanoma
# HOP-62 NSCLC = system: HOP-62 NSCLC
# LOX IMVI melanoma = system: LOX IMVI melanoma
# MOLT-4 leukemia = system: MOLT-4 leukemia
# EKVX NSCLC = system: EKVX NSCLC
# M14 melanoma = system: M14 melanoma
smiles,measurement,setting,value
CCn1nc(-c2ccc(C(=O)OC)cc2)nc2c(=O)n(C)c(=O)nc1-2,GI50,U251 CNS,360 nM
same,TGI,U251 CNS,1380 nM
same,GI50,HCT-15 colon,371 nM
same,TGI,HCT-15 colon,1610 nM
same,GI50,OVCAR-8 ovarian,368 nM
same,TGI,OVCAR-8 ovarian,1450 nM
same,GI50,SF-539 CNS,359 nM
same,TGI,SF-539 CNS,1550 nM
same,GI50,NCI/ADR-RES ovarian,484 nM
same,TGI,NCI/ADR-RES ovarian,2420 nM
same,GI50,NCI-H522 lung,484 nM
same,TGI,NCI-H522 lung,1990 nM
same,GI50,NCI-H460 lung,488 nM
same,TGI,NCI-H460 lung,3270 nM
same,GI50,SK-OV-3 ovarian,1450 nM
same,TGI,SK-OV-3 ovarian,2750 nM
same,GI50,SF-295 CNS,637 nM
same,TGI,SF-295 CNS,1980 nM
same,GI50,IGROV1 ovarian,1080 nM
same,TGI,IGROV1 ovarian,2450 nM
same,GI50,K-562 leukemia,251 nM
same,TGI,K-562 leukemia,1090 nM
same,GI50,SNB-19 CNS,1110 nM
same,TGI,SNB-19 CNS,2370 nM
same,GI50,SN12C renal,193 nM
same,TGI,SN12C renal,411 nM
same,GI50,UACC-62 melanoma,216 nM
same,TGI,UACC-62 melanoma,594 nM
same,GI50,KM12 colon,421 nM
same,TGI,KM12 colon,2230 nM
same,GI50,SW-620 colon,676 nM
same,TGI,SW-620 colon,2180 nM
same,GI50,OVCAR-5 ovarian,460 nM
same,TGI,OVCAR-5 ovarian,1770 nM
same,GI50,BT-549 breast,1550 nM
same,TGI,BT-549 breast,2990 nM
same,GI50,SF-268 CNS,1120 nM
same,TGI,SF-268 CNS,3060 nM
same,GI50,HL-60(TB) leukemia,319 nM
same,TGI,HL-60(TB) leukemia,1150 nM
same,GI50,SK-MEL-2 melanoma,524 nM
same,TGI,SK-MEL-2 melanoma,2040 nM
same,GI50,DU-145 prostate,1110 nM
same,TGI,DU-145 prostate,2320 nM
same,GI50,COLO 205 colon,211 nM
same,TGI,COLO 205 colon,643 nM
same,GI50,UACC-257 melanoma,306 nM
same,TGI,UACC-257 melanoma,1080 nM
same,GI50,HOP-92 NSCLC,1720 nM
same,TGI,HOP-92 NSCLC,3390 nM
same,GI50,PC-3 prostate,347 nM
same,TGI,PC-3 prostate,8220 nM
same,GI50,SK-MEL-5 melanoma,128 nM
same,TGI,SK-MEL-5 melanoma,260 nM
same,GI50,HCC-2998 colon,763 nM
same,TGI,HCC-2998 colon,2240 nM
same,GI50,TK-10 renal,3110 nM
same,TGI,TK-10 renal,6740 nM
same,GI50,SK-MEL-28 melanoma,1380 nM
same,TGI,SK-MEL-28 melanoma,2880 nM
same,GI50,NCI-H226 lung,1360 nM
same,TGI,NCI-H226 lung,2690 nM
same,GI50,OVCAR-3 ovarian,181 nM
same,TGI,OVCAR-3 ovarian,566 nM
same,GI50,MDA-MB-231 breast,461 nM
same,TGI,MDA-MB-231 breast,6330 nM
same,GI50,786-0 renal,1320 nM
same,TGI,786-0 renal,3310 nM
same,GI50,HT29 colon,266 nM
same,TGI,HT29 colon,2400 nM
same,GI50,NCI-H23 lung,1220 nM
same,TGI,NCI-H23 lung,3160 nM
same,GI50,CAKI-1 renal,1220 nM
same,TGI,CAKI-1 renal,2460 nM
same,GI50,RPMI-8226 leukemia,340 nM
same,TGI,RPMI-8226 leukemia,1760 nM
same,GI50,RXF 393 renal,1570 nM
same,TGI,RXF 393 renal,3260 nM
same,GI50,CCRF-CEM leukemia,566 nM
same,TGI,CCRF-CEM leukemia,11300 nM
same,GI50,MCF7 breast,148 nM
same,TGI,MCF7 breast,372 nM
same,GI50,A549 NSCLC,413 nM
same,TGI,A549 NSCLC,1720 nM
same,GI50,UO-31 renal,1080 nM
same,TGI,UO-31 renal,2280 nM
same,GI50,HCT-116 colon,283 nM
same,TGI,HCT-116 colon,1010 nM
same,GI50,SR leukemia,744 nM
same,TGI,SR leukemia,12100 nM
same,GI50,SNB-75 CNS,1190 nM
same,TGI,SNB-75 CNS,2420 nM
same,GI50,OVCAR-4 ovarian,479 nM
same,TGI,OVCAR-4 ovarian,1880 nM
same,GI50,MDA-MB-435,162 nM
same,TGI,MDA-MB-435,310 nM
same,GI50,A498 renal,166 nM
same,TGI,A498 renal,988 nM
same,GI50,T-47D breast,332 nM
same,TGI,T-47D breast,1420 nM
same,GI50,ACHN renal,1080 nM
same,TGI,ACHN renal,2260 nM
same,GI50,MALME-3M melanoma,216 nM
same,TGI,MALME-3M melanoma,836 nM
same,GI50,HOP-62 NSCLC,1070 nM
same,TGI,HOP-62 NSCLC,2580 nM
same,GI50,LOX IMVI melanoma,375 nM
same,TGI,LOX IMVI melanoma,1500 nM
same,GI50,MOLT-4 leukemia,393 nM
same,TGI,MOLT-4 leukemia,2410 nM
COc1ccc(C2=C(c3cn(C)c4ccccc34)C(=O)OC2)cc1OC,GI50,U251 CNS,2640 nM
same,TGI,U251 CNS,> 100000 nM
same,GI50,HCT-15 colon,621 nM
same,TGI,HCT-15 colon,> 100000 nM
same,GI50,OVCAR-8 ovarian,4690 nM
same,TGI,OVCAR-8 ovarian,> 100000 nM
same,GI50,NCI/ADR-RES ovarian,870 nM
same,TGI,NCI/ADR-RES ovarian,> 100000 nM
same,GI50,NCI-H522 lung,1190 nM
same,TGI,NCI-H522 lung,> 100000 nM
same,GI50,NCI-H460 lung,2210 nM
same,TGI,NCI-H460 lung,> 100000 nM
same,GI50,SK-OV-3 ovarian,5600 nM
same,TGI,SK-OV-3 ovarian,> 100000 nM
same,GI50,SF-295 CNS,2650 nM
same,TGI,SF-295 CNS,> 100000 nM
same,GI50,IGROV1 ovarian,1720 nM
same,TGI,IGROV1 ovarian,> 100000 nM
same,GI50,K-562 leukemia,441 nM
same,TGI,K-562 leukemia,> 100000 nM
same,GI50,SNB-19 CNS,4180 nM
same,TGI,SNB-19 CNS,> 100000 nM
same,GI50,SN12C renal,6810 nM
same,TGI,SN12C renal,> 100000 nM
same,GI50,UACC-62 melanoma,1280 nM
same,TGI,UACC-62 melanoma,> 100000 nM
same,GI50,KM12 colon,1450 nM
same,TGI,KM12 colon,> 100000 nM
same,GI50,SW-620 colon,587 nM
same,TGI,SW-620 colon,> 100000 nM
same,GI50,OVCAR-5 ovarian,5960 nM
same,TGI,OVCAR-5 ovarian,> 100000 nM
same,GI50,BT-549 breast,2790 nM
same,TGI,BT-549 breast,> 100000 nM
same,GI50,SF-268 CNS,16800 nM
same,TGI,SF-268 CNS,> 100000 nM
same,GI50,HL-60(TB) leukemia,1420 nM
same,TGI,HL-60(TB) leukemia,6480 nM
same,GI50,EKVX NSCLC,4640 nM
same,TGI,EKVX NSCLC,> 100000 nM
same,GI50,SK-MEL-2 melanoma,4340 nM
same,TGI,SK-MEL-2 melanoma,> 100000 nM
same,GI50,DU-145 prostate,3130 nM
same,TGI,DU-145 prostate,> 100000 nM
same,GI50,COLO 205 colon,1500 nM
same,TGI,COLO 205 colon,27900 nM
same,GI50,UACC-257 melanoma,> 100000 nM
same,TGI,UACC-257 melanoma,> 100000 nM
same,GI50,SK-MEL-5 melanoma,3740 nM
same,TGI,SK-MEL-5 melanoma,> 100000 nM
same,GI50,HCC-2998 colon,2860 nM
same,TGI,HCC-2998 colon,> 100000 nM
same,GI50,TK-10 renal,> 100000 nM
same,TGI,TK-10 renal,> 100000 nM
same,GI50,SK-MEL-28 melanoma,9870 nM
same,TGI,SK-MEL-28 melanoma,> 100000 nM
same,GI50,NCI-H226 lung,3260 nM
same,TGI,NCI-H226 lung,> 100000 nM
same,GI50,OVCAR-3 ovarian,1250 nM
same,TGI,OVCAR-3 ovarian,5450 nM
same,GI50,MDA-MB-231 breast,2420 nM
same,TGI,MDA-MB-231 breast,> 100000 nM
same,GI50,786-0 renal,6670 nM
same,TGI,786-0 renal,> 100000 nM
same,GI50,HT29 colon,688 nM
same,TGI,HT29 colon,> 100000 nM
same,GI50,NCI-H23 lung,4040 nM
same,TGI,NCI-H23 lung,> 100000 nM
same,GI50,CAKI-1 renal,747 nM
same,TGI,CAKI-1 renal,> 100000 nM
same,GI50,RXF 393 renal,1920 nM
same,TGI,RXF 393 renal,6110 nM
same,GI50,MCF7 breast,713 nM
same,TGI,MCF7 breast,> 100000 nM
same,GI50,A549 NSCLC,2670 nM
same,TGI,A549 NSCLC,> 100000 nM
same,GI50,UO-31 renal,1930 nM
same,TGI,UO-31 renal,> 100000 nM
same,GI50,HCT-116 colon,1160 nM
same,TGI,HCT-116 colon,> 100000 nM
same,GI50,SR leukemia,411 nM
same,TGI,SR leukemia,> 100000 nM
same,GI50,OVCAR-4 ovarian,6770 nM
same,TGI,OVCAR-4 ovarian,> 100000 nM
same,GI50,MDA-MB-435,265 nM
same,TGI,MDA-MB-435,801 nM
same,GI50,A498 renal,374 nM
same,TGI,A498 renal,3500 nM
same,GI50,T-47D breast,4070 nM
same,TGI,T-47D breast,> 100000 nM
same,GI50,M14 melanoma,938 nM
same,TGI,M14 melanoma,> 100000 nM
same,GI50,ACHN renal,7950 nM
same,TGI,ACHN renal,> 100000 nM
same,GI50,MALME-3M melanoma,9320 nM
same,TGI,MALME-3M melanoma,> 100000 nM
same,GI50,HOP-62 NSCLC,3000 nM
same,TGI,HOP-62 NSCLC,> 100000 nM
same,GI50,LOX IMVI melanoma,4540 nM
same,TGI,LOX IMVI melanoma,> 100000 nM
same,GI50,MOLT-4 leukemia,2800 nM
same,TGI,MOLT-4 leukemia,> 100000 nM
